Paper PMC8412337, “Alpha-single chains of collagen type VI inhibit the fibrogenic effects of triple helical collagen VI in hepatic stellate cells” (PLoS ONE, 2021)

Key:
CFSC = experiment: Fibrosis-associated gene expression, quantitative real-time PCR; format: cell-based, rat
Procedure: 30 mg/l CVI, 133 mg/l of the monomeric alpha chains of CVI and/or TGF-β (2 ng/ml) were added after 24 h. […] Reverse transcribed complementary DNA templates were amplified by quantitative real-time polymerase chain reaction (PCR; Roche Diagnostics, Mannheim, Germany) using fluorogenic probes labeled with 6-carboxy-fluorescein and 6-carboxy-tetramethylrhodamin (Sigma- Genosys, Steinheim, Germany) and primer pairs (Invitrogen, Karlsruhe, Germany) specific for fibrosis-associated genes (for sequences see S2 Table). Gene expressions were normalized to glyceraldehyde phosphate dehydrogenase (GAPDH).

[1] = system: CVI-induced proliferation of CFSC; experiment: Inhibition of CVI-induced proliferation by α3(VI)-derived 30-mer peptides, [3H]-thymidine incorporation; format: cell-based, rat; details: serum-starved CFSC; 100-fold molar excess of 30-mer peptide compared to CVI; 24 h; n = 4; p<0.05
Procedure: (§1) 5x10^3CFSC in 100 μl 10% FBS were seeded into a 96-well flat-bottom tissue culture plate (Nunc, Roskilde, Denmark). After 24 hours, medium was completely removed, and cells were rinsed with 200 μl phosphate-buffered saline and 100 μl standard medium containing only 0.25% FBS were added. Cells were cultured for additional 24 h prior to treatment. Synchronized microcultures in 96-well plates were treated for 2 hours in reduction medium. When appropriate, the reduction medium was supplemented with 40 mg/l of α1(VI), α2(VI) or α3(VI). Then, 30 mg/l CVI or CI as control were added and cells were incubated for 24 h after which [^3H]-thymidine was added for additional 24 h. To assess effects of α3(VI)-derived 30-mer peptides on CVI-induced proliferation of CFSC, the reduction medium was supplemented with a 100-fold molar excess of the respective 30-mer peptides compared to CVI. [^3H]-thymidine incorporation was measured as described before. Cells treated with 150 mmol/l HAc or grown in 10% FBS served as negative and positive controls, respectively. During the last 4 hours of treatment, all cultures received 18.5 kBq [^3H]-thymidine (Amersham, Freiburg, Germany). Cells were fixed with 10% trichloroacetic acid and lysed by 200 mmol/l NaOH. After neutralization with 800 mmol/l HCl, lysates were collected to a glassfibre mat and the de-novo DNA synthesis was assessed by liquid scintillation (LKB Wallac, Bromma, Sweden) and the radioactive decay was counted (for) a minute (cpm).

primary rat HSC [2] = experiment: FACS analysis of apoptosis (propidium iodide DNA content); format: cell-based; details: serum-starved primary rat HSC; text: within 24 hours, Fig 1C legend: 48 h; propidium iodide; three independent experiments
Procedure: Activated HSC (third passage) were serum starved for 24 h in standard medium without FBS (starving medium), followed by dissociation with 500 μl 0.05% trypsin-EDTA (Biochrom, Berlin, Germany) and neutralization with 30 ml starving medium containing 1 g/l soybean trypsin inhibitor and 1 g/l ovalbumin. Alternatively, cells were scraped carefully with a cell-scraper (Costar, Cambridge, MA, USA) to exclude any potential effect of trypsin. After centrifugation at 800 x g for 10 min, cells were washed twice with 20 ml PBS (w/o Ca^2+, Mg^2+; Biochrom, Berlin, Germany), resuspended in starving medium and plated at a density of 1.5-2x10^6 in 1.7 ml starving medium in 6-well plates (NUNC, Wiesbaden, Germany). Cells were then treated with starving medium, soluble CI or CVI (both at a final concentration of 30 mg/l), or 10% FBS. For quantification of spreading, cells that had attached were counted 12 hours after plating and spreading efficiency was determined as percentage of plated cells in each group. De-novo DNA synthesis and apoptosis were assessed by morphological criteria, Cell death detection ELISA and FACS analysis as described below. […] After blocking the cells 1h with DMEM+1% FBS, the cells were incubated with primary antibodies against a-actin (Sigma-Aldrich, Taufkirchen, Germany, #A2547; dilution 1:200) and GFAP (Sigma-Aldrich, #G9269; dilution 1:20) followed by a washing step with PBS and the incubation with fluorescence-labeled secondary antibodies (Alexa Fluor 546 & Alexa Fluor 488, Molecular Probes, Eugene, USA, #A11030 & #A11034; dilution 1:100). […] Cells were analyzed by fluorescence microscopy (Zeiss, Jena, Germany; Kodak Ektachrome P1600 and a quantitative staining analysis was performed using Image J software (version 1.50i; National Institutes of Health, Bethesda, […], USA).
10^5 of freshly set cells were treated with starving medium, CI, CVI or 10% FBS for 24 or 48 hours as described before. […] Fixed cells were stained with propidium iodide (50 mg/l) in a final volume of 1 ml before being subjected to fluorescence activated cell sorting (FACS) analysis.

[3] = system: Bax and Bcl-2 in activated HSCs; experiment: Western-blot analysis of Bax and Bcl-2; format: cell-based, rat; details: 24 hours culture after serum starvation; densitometry; three independent experiments
Procedure: Dislodged cells were centrifuged at 800 x g/10 min and lysed with 100 μl lysis buffer. The protein concentration was determined using NanoOrange® Protein Quantitation Kit (Life Technologies) according to the manufacturer’s instructions. Briefly, protein solutions were mixed with the diluted NanoOrange reagent in 1.5 ml polypropylene tubes and heated at 95°C for 10 min in a thermomixer (Peqlab, Erlangen, Germany). Tubes were centrifuged and 200 μl of each sample were transferred to a black 96 well flat-bottom plate (Greiner BioOne, Frickenhausen, Germany). The emitted fluorescence was assessed at 570 nm in a SpectraMax Gemini EM (Molecular Devices, Biberach an der Riß, Germany). Protein concentrations were calculated from a bovine serum albumin standard curve. Equivalent amounts (10–50 μg) of protein were used in […]. Sample buffer (1:1) was added and the aliquots (20 μl final volume) were boiled for 5 min and subjected to 12% SDS-PAGE. After blocking for 1 h at room temperature in 10 mmol Tris-HCl, pH 7.5, 100 mmol NaCl, containing 0.1% Tween 20 and 3% bovine serum albumine (BSA), nitrocellulose-membranes were incubated either with polyclonal rabbit anti-rat antibodies to Bax (1:1000, sc-493), Bcl-2 (1:1000, sc783, both Santa Cruz, Santa Cruz, USA), α-actin (1:4000, A2547, Sigma) or β-actin (1:10,000, A5441, Sigma). Membranes were then washed in 10 mmol Tris-HCl, 100 mmol NaCl, 0.1% Tween 20, pH 7.5, and incubated with anti-rabbit IgG coupled to peroxidase (1:1000, A4416, Sigma) for 1 h at room temperature or directly developed (RC20H). Bands were detected with the ECL chemiluminescence reagent (Amersham-Pharmacia, Freiburg, Germany). After stripping in 0.1 M glycin-HCl, pH 2, for 20 min at room temperature, membranes were reprobed with appropriate primary and secondary antibodies. Band intensities were analyzed by densitometry and normalized to β-actin.

primary rat HSC [4] = experiment: Cell Death Detection ELISA (oligonucleosomal DNA fragments); format: cell-based; details: OD of sample divided by OD of 10% FBS group, three independent experiments
Procedure: 10^5 cells were seeded in 6-well plates and treated with starving medium or medium plus CI, CVI or 10% FBS. After 24 or 48 h floating and adherent cells were pooled, and lysed with 500 μl of 1% SDS, 10 mM Tris, pH 7.4 (lysis buffer), for 30 min at 4°C. Lysed cells were transferred to 1.5 ml Eppendorf tubes and centrifuged at 13,000 rpm for 20 min, to separate low molecular weight DNA (oligonucleosome-sized fragments derived from apoptotic cells) from high molecular weight DNA (from viable cells). 400 μl of the supernatant containing oligonucleosomes were transferred to another Eppendorf tube and diluted 1:5 with lysis buffer. 100 μl aliquots were used for the Cell Death Detection ELISA, which was performed according to the manufacturer’s instructions (Boehringer Mannheim, Germany). In brief, antibodies against histones were coated onto 96-wells, 100 μl lysate-samples containing oligonucleotides and histones were added and incubated for one hour. After washing, wells were incubated with anti-double strand DNA antibody coupled to peroxidase for one hour. After reaction with peroxidase substrate, absorbance was measured at 405 nm using an ELISA reader. Background values (lysis-buffer alone) were subtracted, and results are shown as enrichment factor [enrichment factor: OD (optical density) of the sample (apoptotic cells) divided by the OD of the corresponding control (viable cells, 10% FBS-group). A defined positive control was prepared using a hypertonic buffer, containing 10 mM Tris, 400 mM NaCl, 5 mM CaCl2 and 10 mM MgCl2, instead of starving medium.

primary rat HSCs = experiment: [3H]-thymidine incorporation, de-novo DNA synthesis; format: cell-based; details: primary rHSCs; CVI at 10 μg/ml; within 24 hours; three independent experiments
[5] = system: CVI-induced proliferation of HSC; experiment: Inhibition of CVI-induced proliferation by alpha single chains, [3H]-thymidine incorporation; format: cell-based, rat; details: 40 mg/l single chain, then 30 mg/l CVI; 24 h; primary rHSCs, n = three; Fig 4A legend: CFSC, n = 4
Procedure: as §1

[6] = system: 10% FBS-induced proliferation of HSC; experiment: Inhibition of 10% FBS-induced proliferation by alpha single chains, [3H]-thymidine incorporation; format: cell-based, rat; details: cells grown in 10% FBS, Fig 4A
Procedure: as §1

[7] = CFSC, medium containing 0.2% FBS, S3 Fig, one out of two independent experiments

TGF-β [reference compound]
time after which CI expression increased (CFSC; [7]): ~ 8 h | time of maximum CI expression (CFSC; [7]): ~ 24 h | reduction of the expression of MMP-3 (CFSC; serum-starved CFSC, 24 h, TGF-β 2 ng/ml, CVI 30 mg/l, qPCR normalized to GAPDH): ~ 70%

GAPGERGRTGPLGRKGEPGEPGPKGGIGNP [B6, α3(VI)-derived synthetic 30-mer peptide]
inhibition of CVI-induced proliferation [1]: no or weaker inhibitory activities

PPGLIGEQGISGPRGSGGARGAPGERGRTG [B5, α3(VI)-derived synthetic 30-mer peptide]
inhibition of CVI-induced proliferation [1]: no or weaker inhibitory activities

GFPGEKGEVGEIGLDGLDGEDGDKGLPGSS [A4, α3(VI)-derived synthetic 30-mer peptide]
inhibition of CVI-induced proliferation [1]: strong growth inhibitory effects

DGDKGLPGSSGEKGNPGRRGDKGPRGEKGE [A5, α3(VI)-derived synthetic 30-mer peptide]
inhibition of CVI-induced proliferation [1]: no or weaker inhibitory activities

VNGTQGFQGCPGQRGVKGSRGFPGEKGEVG [A3, α3(VI)-derived synthetic 30-mer peptide]
inhibition of CVI-induced proliferation [1]: strong growth inhibitory effects

DKGPRGEKGERGDVGIRGDPGNPGQDSQER [A6, α3(VI)-derived synthetic 30-mer peptide]
inhibition of CVI-induced proliferation [1]: no or weaker inhibitory activities

GIRGRRGNSGPPGIVGQKGRPGYPGPAGPR [C4, α3(VI)-derived synthetic 30-mer peptide]
inhibition of CVI-induced proliferation [1]: strong growth inhibitory effects

DGYRGYPGDEGGPGERGPPGVNGTQGFQGC [A2, α3(VI)-derived synthetic 30-mer peptide]
inhibition of CVI-induced proliferation [1]: no or weaker inhibitory activities

CI: Human collagen I isolated from placentas by pepsin digestion; served as a control
percentage of apoptotic cells (FACS) (primary rat HSC [2]): 80% | Bax to Bcl-2 ratio [3]: 7.0 | enrichment factor of oligonucleosomal fragments (primary rat HSC [4]; after 24 hours): 5 | enrichment factor of oligonucleosomal fragments (primary rat HSC [4]; after 48 hours): 30 | de-novo DNA synthesis ([3H]-thymidine incorporation) (primary rat HSCs): little DNA incorporation

α1(VI): monomeric alpha 1 single chain of collagen VI isolated from human placentas
inhibition of DNA synthesis in the presence of CVI [5]: did not show any effect | effect on 10% FBS-induced proliferation [6]: had no effect | effect on CVI-induced expression of αSMA, CI and TGF-β (CFSC; serum-starved CFSC, 30 mg/l CVI plus 133 mg/l monomeric alpha chain, 24 h, n = 4): some inhibitory effects

RDGVGSEGRRGKKGERGFPGYPGPKGNPGE [C2, α3(VI)-derived synthetic 30-mer peptide]
inhibition of CVI-induced proliferation [1]: strong growth inhibitory effects

GNPGQDSQERGPKGETGDLGPMGVPGRDGV [B1, α3(VI)-derived synthetic 30-mer peptide]
inhibition of CVI-induced proliferation [1]: strong growth inhibitory effects
